Experimental data reported in patent US8309546B2, “Morpholinopurine derivatives” (Daiichi Sankyo Company, Limited, priority 2008, dated 2012).

What was measured:
[1] = tested on: human ovary cancer cell strain IGROV1; experiment: Cell growth inhibition test (MTT), IGROV1; assay type: cell-based; conditions: IGROV-1, 72 h, IGROV1, 3 days culture, read-out: concentration exhibiting anti-cell effect (GI50)
Method in brief: (§1)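 Cells were seeded per well (AN3CA 5000, IGROV1 1000, HT29 5000), dosed next day and cultured 3 days at 37° C in 5% CO2. Viable cells were read by MTT (4 h, DMSO-solubilized formazan, A540). GI50 was interpolated between the two concentrations bracketing 50% growth rate (T/C %, corrected for day-0 absorbance).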

[2] = target: T1, human mTOR (His-tagged mTOR (1362C)) (Homo sapiens, UniProt P42345); experiment: mTOR kinase activity inhibition assay; assay type: biochemical; conditions: HTRF, read-out: IC50 against mTOR
T1 construct: the 1362 to 2549 amino acid portion on the C terminus side of human mTOR; His tag (N); made in house
Method in brief: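 Crude His-tagged mTOR (aa 1362–2549) from stable HEK293 cells, with 8 μg/ml biotinylated peptide in 50 mM HEPES pH 7.5, 20 mM MnCl2; compound diluted in 20 μM ATP solution, reaction 3 h at room temperature. Phospho-peptide detected by HTRF (anti-phospho-S6K Thr389 cryptate/streptavidin-XL665, overnight at 4°C), 665/620 nm ratio. IC50 derived from curve fit of % inhibition.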

PI3Kα = PI3Kα (Homo sapiens, UniProt P42336); experiment: PI3K kinase activity inhibition assay; assay type: biochemical; conditions: Kinase-Glo Plus ATP detection, read-out: IC50 against PI3K
Method in brief: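 PI3Kα (50 nM solution) was reacted with 30 μM ATP and 45 μM PIP2 solutions, each in HEPES pH 7.4 with MgCl2 and DTT, for 2 h at room temperature. Remaining ATP was measured by Kinase-Glo Plus luminescence, and inhibition was derived from ATP consumed. IC50 was taken from curve fitting of the serial dilutions.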

[3] = tested on: human colon cancer cell strain HT29; experiment: Cell growth inhibition test (MTT), HT29; assay type: cell-based; conditions: HT-29, 72 h, HT29, 3 days culture, read-out: concentration exhibiting anti-cell effect (GI50)
Method in brief: as §1

[4] = tested on: human endometrial cancer cell strain AN3CA; experiment: Cell growth inhibition test (MTT), AN3CA; assay type: cell-based; conditions: AN3-CA, 72 h, 3 days culture, read-out: concentration exhibiting anti-cell effect (GI50)
Method in brief: as §1

PI3Kα, sequence (P42336 whole entry, species assumed): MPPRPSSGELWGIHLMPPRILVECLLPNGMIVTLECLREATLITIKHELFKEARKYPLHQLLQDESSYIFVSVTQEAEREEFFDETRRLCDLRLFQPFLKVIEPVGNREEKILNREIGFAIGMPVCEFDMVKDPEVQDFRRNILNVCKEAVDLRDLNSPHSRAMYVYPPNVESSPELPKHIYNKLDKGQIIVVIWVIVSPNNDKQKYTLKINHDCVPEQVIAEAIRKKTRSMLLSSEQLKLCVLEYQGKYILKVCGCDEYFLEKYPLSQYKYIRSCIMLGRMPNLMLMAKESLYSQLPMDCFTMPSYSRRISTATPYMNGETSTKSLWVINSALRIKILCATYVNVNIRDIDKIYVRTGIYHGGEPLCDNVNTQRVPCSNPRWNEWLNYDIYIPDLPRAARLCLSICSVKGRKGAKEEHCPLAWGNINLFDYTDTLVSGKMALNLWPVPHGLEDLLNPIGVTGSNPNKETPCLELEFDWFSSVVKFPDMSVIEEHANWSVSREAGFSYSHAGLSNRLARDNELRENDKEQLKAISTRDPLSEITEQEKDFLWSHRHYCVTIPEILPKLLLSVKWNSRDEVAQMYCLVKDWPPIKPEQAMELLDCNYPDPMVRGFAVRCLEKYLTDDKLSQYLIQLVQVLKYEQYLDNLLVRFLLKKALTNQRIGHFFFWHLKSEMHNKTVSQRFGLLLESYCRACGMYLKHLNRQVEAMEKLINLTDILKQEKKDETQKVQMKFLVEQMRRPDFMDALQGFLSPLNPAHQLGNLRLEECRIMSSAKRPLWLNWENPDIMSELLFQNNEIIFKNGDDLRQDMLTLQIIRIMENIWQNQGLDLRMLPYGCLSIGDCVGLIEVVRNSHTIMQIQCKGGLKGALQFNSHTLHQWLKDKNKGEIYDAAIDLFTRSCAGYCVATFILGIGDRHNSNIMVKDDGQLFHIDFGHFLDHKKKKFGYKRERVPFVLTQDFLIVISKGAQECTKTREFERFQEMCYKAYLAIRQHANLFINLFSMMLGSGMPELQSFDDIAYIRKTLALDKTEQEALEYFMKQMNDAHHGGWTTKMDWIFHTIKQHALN
PI3Kα, sequence (P27986 whole entry partner, species assumed): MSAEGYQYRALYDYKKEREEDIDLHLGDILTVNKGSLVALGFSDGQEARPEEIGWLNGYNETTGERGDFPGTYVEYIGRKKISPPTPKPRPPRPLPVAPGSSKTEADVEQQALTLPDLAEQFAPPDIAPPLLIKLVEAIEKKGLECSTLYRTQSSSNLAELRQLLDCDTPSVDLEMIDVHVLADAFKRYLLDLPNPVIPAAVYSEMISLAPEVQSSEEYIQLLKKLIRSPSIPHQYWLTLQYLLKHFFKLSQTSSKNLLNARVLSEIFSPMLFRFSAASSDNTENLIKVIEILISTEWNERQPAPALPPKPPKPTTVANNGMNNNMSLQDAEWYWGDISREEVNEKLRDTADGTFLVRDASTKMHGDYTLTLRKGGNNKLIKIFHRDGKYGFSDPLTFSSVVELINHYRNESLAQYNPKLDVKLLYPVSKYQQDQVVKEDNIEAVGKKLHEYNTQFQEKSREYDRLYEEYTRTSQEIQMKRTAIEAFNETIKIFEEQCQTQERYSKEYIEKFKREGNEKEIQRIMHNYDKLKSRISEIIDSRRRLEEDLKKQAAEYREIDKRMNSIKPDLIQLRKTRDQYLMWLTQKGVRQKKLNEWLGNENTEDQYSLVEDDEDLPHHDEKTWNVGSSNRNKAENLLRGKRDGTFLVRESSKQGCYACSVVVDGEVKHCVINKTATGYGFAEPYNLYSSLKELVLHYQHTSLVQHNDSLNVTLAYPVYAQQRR
T1 sequence (P42345 1362-2549): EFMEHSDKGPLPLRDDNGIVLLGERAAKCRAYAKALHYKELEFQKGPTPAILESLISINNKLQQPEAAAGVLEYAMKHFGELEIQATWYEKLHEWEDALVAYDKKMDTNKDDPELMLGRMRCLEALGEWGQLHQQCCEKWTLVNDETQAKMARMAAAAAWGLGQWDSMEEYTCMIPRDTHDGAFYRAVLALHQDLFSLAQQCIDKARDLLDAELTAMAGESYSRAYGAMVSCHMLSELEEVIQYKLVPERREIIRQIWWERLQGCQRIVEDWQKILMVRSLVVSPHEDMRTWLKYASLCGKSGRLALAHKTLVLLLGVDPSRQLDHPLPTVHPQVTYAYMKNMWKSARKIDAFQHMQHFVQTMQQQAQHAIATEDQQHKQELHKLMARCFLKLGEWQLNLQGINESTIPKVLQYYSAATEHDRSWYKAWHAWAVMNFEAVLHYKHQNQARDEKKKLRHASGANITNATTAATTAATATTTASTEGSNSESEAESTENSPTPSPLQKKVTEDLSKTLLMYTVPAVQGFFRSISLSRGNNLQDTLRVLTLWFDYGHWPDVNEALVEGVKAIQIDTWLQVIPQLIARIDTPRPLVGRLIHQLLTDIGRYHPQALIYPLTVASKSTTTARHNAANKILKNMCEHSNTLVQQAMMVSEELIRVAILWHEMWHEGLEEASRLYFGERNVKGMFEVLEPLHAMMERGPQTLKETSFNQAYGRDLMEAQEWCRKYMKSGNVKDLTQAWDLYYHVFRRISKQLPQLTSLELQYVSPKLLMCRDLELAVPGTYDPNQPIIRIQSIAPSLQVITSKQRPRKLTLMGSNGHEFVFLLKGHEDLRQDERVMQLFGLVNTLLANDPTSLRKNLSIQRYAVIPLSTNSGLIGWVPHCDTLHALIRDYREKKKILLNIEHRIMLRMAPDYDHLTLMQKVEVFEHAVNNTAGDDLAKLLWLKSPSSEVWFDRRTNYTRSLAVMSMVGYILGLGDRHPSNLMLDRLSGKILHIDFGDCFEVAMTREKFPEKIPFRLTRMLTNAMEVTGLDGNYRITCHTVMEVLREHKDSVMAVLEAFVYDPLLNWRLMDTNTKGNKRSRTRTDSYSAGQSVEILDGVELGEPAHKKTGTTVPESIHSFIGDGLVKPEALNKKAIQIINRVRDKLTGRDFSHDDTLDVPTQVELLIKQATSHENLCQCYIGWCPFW

Row | GI50 [1] | IC50 [2] | IC50 (PI3Kα) | GI50 [3] | GI50 [4] | SMILES
1 | ≤ 5000 nM | < 10 nM | 10 to 20 nM | ≤ 5000 nM | ≤ 5000 nM | CC(=O)N1CCN(c2nc3c(N4CCOCC4)nc(-c4cnc(N)nc4)nc3n2CC(F)(F)F)CC1 [Example 9, 5-[8-(4-Acetylpiperazin-1-yl)-6-morpholin-4-yl-9-(2,2,2-trifluoroethyl)-9H-purin-2-yl]pyrimidin-2-amine]
2 | ≤ 5000 nM | 30 to 100 nM | 20 to 50 nM | ≤ 5000 nM | ≤ 5000 nM | CNc1ncc(-c2nc(N3CCOCC3)c3nc(N4C[C@@H](C)N[C@@H](C)C4)n(CC4CC4)c3n2)cn1 [Example 16, 5-{9-(Cyclopropylmethyl)-8-(cis-3,5-dimethylpiperazin-1-yl)-6-morpholin-4-yl-9H-purin-2-yl}-N-methylpyrimidin-2-amine]
3 | ≤ 5000 nM | 30 to 100 nM | 10 to 20 nM | ≤ 5000 nM | ≤ 5000 nM | Nc1ncc(-c2nc(N3CCOCC3)c3nc(N4CCOCC4)n(CC4CC4)c3n2)cn1 [Example 20, 5-[9-(Cyclopropylmethyl)-6,8-dimorpholin-4-yl-9H-purin-2-yl]pyrimidin-2-amine]
4 | ≤ 5000 nM | 30 to 100 nM | 10 to 20 nM | ≤ 5000 nM | ≤ 5000 nM | Nc1ncc(-c2nc(N3CCOCC3)c3nc(N4CCNCC4)n(CC4CC4)c3n2)cn1 [Example 19, 5-[9-(Cyclopropylmethyl)-6-morpholin-4-yl-8-piperazin-1-yl-9H-purin-2-yl]pyrimidin-2-amine]
5 | ≤ 5000 nM | 10 to 30 nM | < 10 nM | ≤ 5000 nM | ≤ 5000 nM | C[C@H]1CN(c2nc3c(N4CCOCC4)nc(-c4cnc(N)nc4)nc3n2CC(F)(F)F)CCN1 [Example 58, 5-{8-[(3S)-3-Methylpiperazin-1-yl]-6-morpholin-4-yl-9-(2,2,2-trifluoroethyl)-9H-purin-2-yl}pyrimidin-2-amine]
6 | ≤ 5000 nM | 30 to 100 nM | 20 to 50 nM | ≤ 5000 nM | ≤ 5000 nM | CC(C)n1c(N2CCN(S(C)(=O)=O)CC2)nc2c(N3CCOCC3)nc(-c3cnc(N)nc3)nc21 [Example 46, 5-{9-Isopropyl-8-[4-(methylsulfonyl)piperazin-1-yl]-6-morpholin-4-yl-9H-purin-2-yl}pyrimidin-2-amine]
7 | ≤ 5000 nM | < 10 nM | < 10 nM | ≤ 5000 nM | ≤ 5000 nM | C[C@H]1CN(c2nc3c(N4CCOCC4)nc(-c4cnc(N)nc4)nc3n2CC(F)(F)F)CCN1C(=O)CO [Example 125, 2-{(2S)-4-[2-(2-Aminopyrimidin-5-yl)-6-morpholin-4-yl-9-(2,2,2-trifluoroethyl)-9H-purin-8-yl]-2-methylpiperazin-1-yl}-2-oxoethanol]
8 | ≤ 5000 nM | 10 to 30 nM | 10 to 20 nM | ≤ 5000 nM | ≤ 5000 nM | CC(C)Cn1c(N2CCN[C@@H](C)C2)nc2c(N3CCOCC3)nc(-c3cnc(N)nc3)nc21 [Example 51, 5-{9-Isobutyl-8-[(3S)-3-methylpiperazin-1-yl]-6-morpholin-4-yl-9H-purin-2-yl}pyrimidin-2-amine]
9 | ≤ 5000 nM | < 10 nM | 10 to 20 nM | ≤ 5000 nM | ≤ 5000 nM | CC(O)C(=O)N1[C@H](C)CN(c2nc3c(N4CCOCC4)nc(-c4cnc(N)nc4)nc3n2CC(F)(F)F)C[C@@H]1C (stereo partly drawn) [Example 124, 1-{4-[2-(2-Aminopyrimidin-5-yl)-6-morpholin-4-yl-9-(2,2,2-trifluoroethyl)-9H-purin-8-yl]-cis-2,6-dimethylpiperazin-1-yl}-1-oxopropan-2-ol]
10 | ≤ 5000 nM | 100 to 500 nM | 50 to 100 nM | ≤ 5000 nM | ≤ 5000 nM | CNc1ncc(-c2nc(N3CCOCC3)c3nc(N4CCOCC4)n(CC4CCOC4)c3n2)cn1 (stereo not drawn) [Example 24, 5-[6,8-Dimorpholin-4-yl-9-(tetrahydrofuran-3-ylmethyl)-9H-purin-2-yl]-N-methylpyrimidin-2-amine]
11 | ≤ 5000 nM | ≥ 500 nM | 20 to 50 nM | ≤ 5000 nM | ≤ 5000 nM | Cc1nc(N)ncc1-c1nc(N2CCOCC2)c2nc(NCCNS(C)(=O)=O)n(CC3CC3)c2n1 [Example 32, N-(2-{[2-(2-Amino-4-methylpyrimidin-5-yl)-9-(cyclopropylmethyl)-6-morpholin-4-yl-9H-purin-8-yl]amino}ethyl)methanesulfonamide]
12 | ≤ 5000 nM | 30 to 100 nM | 10 to 20 nM | ≤ 5000 nM | ≤ 5000 nM | CNc1ncc(-c2nc(N3CCOCC3)c3nc(N4CCN(S(C)(=O)=O)CC4)n(CC4CC4)c3n2)cn1 [Example 4, 5-{9-(Cyclopropylmethyl)-8-[4-(methylsulfonyl)piperazin-1-yl]-6-morpholin-4-yl-9H-purin-2-yl}-N-methylpyrimidin-2-amine]
13 | ≤ 5000 nM | 30 to 100 nM | < 10 nM | ≤ 5000 nM | ≤ 5000 nM | CNc1ncc(-c2nc(N3CCOCC3)c3nc(N4CCOCC4)n(CC4CC4)c3n2)cn1 [Example 39, 5-[9-(Cyclopropylmethyl)-6,8-dimorpholin-4-yl-9H-purin-2-yl]-N-methylpyrimidin-2-amine]
14 | ≤ 5000 nM | ≥ 500 nM | 10 to 20 nM | ≤ 5000 nM | ≤ 5000 nM | Cc1nc(N)ncc1-c1nc(N2CCOCC2)c2nc(N3CCC(NS(C)(=O)=O)C3)n(CC3CC3)c2n1 (stereo not drawn) [Example 35, N-{1-[2-(2-Amino-4-methylpyrimidin-5-yl)-9-(cyclopropylmethyl)-6-morpholin-4-yl-9H-purin-8-yl]pyrrolidin-3-yl}methanesulfonamide]
15 | ≤ 5000 nM | < 10 nM | < 10 nM | ≤ 5000 nM | ≤ 5000 nM | C[C@@H]1CN(c2nc3c(N4CCOCC4)nc(-c4cnc(N)nc4)nc3n2CC(F)(F)F)C[C@H](C)N1C(=O)CO [Example 120]
16 | ≤ 5000 nM | 30 to 100 nM | 20 to 50 nM | ≤ 5000 nM | ≤ 5000 nM | CNc1ncc(-c2nc(N3CCOCC3)c3nc(N4CCN(S(C)(=O)=O)CC4)n(CC4CCOC4)c3n2)cn1 (stereo not drawn) [Example 25, N-Methyl-5-{8-[4-(methylsulfonyl)piperazin-1-yl]-6-morpholin-4-yl-9-(tetrahydrofuran-3-ylmethyl)-9H-purin-2-yl}pyrimidin-2-amine]
17 | ≤ 5000 nM | 10 to 30 nM | < 10 nM | ≤ 5000 nM | ≤ 5000 nM | C[C@H]1CN(c2nc3c(N4CCOCC4)nc(-c4cnc(N)nc4)nc3n2CC2CC2)CCN1 [Example 91, 5-{9-(Cyclopropylmethyl)-8-[(3S)-3-methylpiperazin-1-yl]-6-morpholin-4-yl-9H-purin-2-yl}pyrimidin-2-amine]
18 | ≤ 5000 nM | 100 to 500 nM | 10 to 20 nM | ≤ 5000 nM | ≤ 5000 nM | Cc1nc(N)ncc1-c1nc(N2CCOCC2)c2nc(N3CCC(N(C)S(C)(=O)=O)C3)n(CC3CC3)c2n1 (stereo not drawn) [Example 34, N-{1-[2-(2-Amino-4-methylpyrimidin-5-yl)-9-(cyclopropylmethyl)-6-morpholin-4-yl-9H-purin-8-yl]pyrrolidin-3-yl}-N-methylmethanesulfonamide]
19 | ≤ 5000 nM | 10 to 30 nM | < 10 nM | ≤ 5000 nM | ≤ 5000 nM | CN1CCN(c2nc3c(N4CCOCC4)nc(-c4cnc(N)nc4)nc3n2CC(F)(F)F)CC1 [Example 13, 5-[8-(4-Methylpiperazin-1-yl)-6-morpholin-4-yl-9-(2,2,2-trifluoroethyl)-9H-purin-2-yl]pyrimidin-2-amine]
20 | ≤ 5000 nM | 10 to 30 nM | 10 to 20 nM | ≤ 5000 nM | ≤ 5000 nM | C[C@@H]1CN(c2nc3c(N4CCOCC4)nc(-c4cnc(N)nc4)nc3n2CC2CC2)C[C@H](C)N1S(C)(=O)=O [Example 38, 5-{9-(Cyclopropylmethyl)-8-[cis-3,5-dimethyl-4-(methylsulfonyl)piperazin-1-yl]-6-morpholin-4-yl-9H-purin-2-yl}pyrimidin-2-amine]
21 | ≤ 5000 nM | 10 to 30 nM | < 10 nM | ≤ 5000 nM | ≤ 5000 nM | Nc1ncc(-c2nc(N3CCOCC3)c3nc(N4CCN(C(=O)Cn5ccnc5)CC4)n(CC4CC4)c3n2)cn1 [Example 56, 5-{9-(Cyclopropylmethyl)-8-[4-(1H-imidazol-1-ylacetyl)piperazin-1-yl]-6-morpholin-4-yl-9H-purin-2-yl}pyrimidin-2-amine]
